pIC50: −log10 of the molar value. The source made the active and inactive calls. No cut-off for these calls is given here.
What was measured:
Senna obtusifolia = assay: Preemergence herbicidal activity against Senna obtusifolia (sicklepod) after 20 days; assay type: functional
Chenopodium album = assay: Pre-emergence herbicidal activity against Chenopodium album after 20 days; assay type: functional
Amaranthus retroflexus = assay: Pre-emergence herbicidal activity against Amaranthus retroflexus after 20 days; assay type: functional
Abutilon theophrasti = assay: Preemergence herbicidal activity against Abutilon theophrasti (velvetleaf) after 20 days; assay type: functional
Xanthium strumarium = assay: Pre-emergence herbicidal activity against Xanthium strumarium (cocklebur) after 20 days; assay type: functional
Ipomoea hederacea = assay: Pre-emergence herbicidal activity against Ipomoea hederacea (ivy-leaved morning glory) after 20 days; assay type: functional
Galium aparine = assay: Pre-emergence herbicidal activity against Galium aparine after 20 days; assay type: functional
[1] = target: 15-cis-phytoene desaturase (Synechococcus elongatus (strain PCC 7942) (Anacystis nidulans R2), UniProt P26294); assay: Inhibition of Synechococcus PCC 7942 phytoene desaturase expressed in Escherichia coli JM 101 by HPLC analysis; conditions: read-out: I50
[2] = target: 15-cis-phytoene desaturase (Synechococcus elongatus (strain PCC 7942) (Anacystis nidulans R2)) (UniProt P26294); assay: Non-competitive inhibition of Synechococcus PCC 7942 phytoene desaturase expressed in Escherichia coli JM 101 by Lineweaver-Burk plot analysis
[3] = target: 15-cis-phytoene desaturase (Synechococcus elongatus (strain PCC 7942) (Anacystis nidulans R2)) (UniProt P26294); assay: Inhibition of Synechococcus PCC 7942 phytoene desaturase expressed in Escherichia coli JM 101 assessed as decrease in zeta-carotene content by HPLC analysis
[4] = Ratio of ED50 for Xanthium strumarium to ED50 for Chenopodium album; assay type: functional
[5] = Ratio of ED50 for Xanthium strumarium to ED50 for Galium aparine; assay type: functional
[6] = Ratio of ED50 for Xanthium strumarium to ED50 for Cassia obtusifolia; assay type: functional

Sequence of 15-cis-phytoene desaturase (P26294 whole entry): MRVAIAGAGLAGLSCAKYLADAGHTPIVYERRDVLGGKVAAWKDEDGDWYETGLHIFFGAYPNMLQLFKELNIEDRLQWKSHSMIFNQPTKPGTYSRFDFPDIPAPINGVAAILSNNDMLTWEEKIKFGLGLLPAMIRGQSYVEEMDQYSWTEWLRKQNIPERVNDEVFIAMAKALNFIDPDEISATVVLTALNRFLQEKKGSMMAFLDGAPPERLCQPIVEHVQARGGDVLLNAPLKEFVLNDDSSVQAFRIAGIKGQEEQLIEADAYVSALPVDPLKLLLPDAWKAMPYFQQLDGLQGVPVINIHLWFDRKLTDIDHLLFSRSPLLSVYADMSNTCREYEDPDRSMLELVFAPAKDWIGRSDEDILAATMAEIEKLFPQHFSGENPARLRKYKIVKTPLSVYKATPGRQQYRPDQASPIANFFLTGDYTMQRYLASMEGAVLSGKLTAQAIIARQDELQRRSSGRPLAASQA
Sequence of 15-cis-phytoene desaturase (Synechococcus elongatus (strain PCC 7942) (Anacystis nidulans R2)) (P26294 whole entry): as above

## C[C@H]1CO[C@@H](Cc2cccc(C(F)(F)F)c2)C(=O)N1
Senna obtusifolia
  ED50: 1550 g/ha
Chenopodium album
  ED50: 500 g/ha
Amaranthus retroflexus
  ED50: 600 g/ha
Abutilon theophrasti
  ED50: 500 g/ha
Xanthium strumarium
  ED50: 2300 g/ha
Ipomoea hederacea
  ED50: 1500 g/ha
Galium aparine
  ED50: 1500 g/ha
[1]
  pIC50: 5.42

## C[C@H]1CO[C@H](Cc2cccc(C(F)(F)F)c2)C(=O)N1
Senna obtusifolia
  ED50: 200 g/ha
Chenopodium album
  ED50: 25 g/ha
Amaranthus retroflexus
  ED50: 50 g/ha
Abutilon theophrasti
  ED50: 50 g/ha
[2]
  inhibition: Active
[3]
  inhibition: Active
Xanthium strumarium
  ED50: 340 g/ha
Ipomoea hederacea
  ED50: 130 g/ha
Galium aparine
  ED50: 130 g/ha
[1]
  pIC50: 6.77

## C[C@@H]1CO[C@@H](Cc2cccc(C(F)(F)F)c2)C(=O)N1
Senna obtusifolia
  ED50: >10000 g/ha
Chenopodium album
  ED50: >10000 g/ha
Amaranthus retroflexus
  ED50: >10000 g/ha
Xanthium strumarium
  ED50: >10000 g/ha
Ipomoea hederacea
  ED50: 4000 g/ha
Galium aparine
  ED50: 4000 g/ha
[1]
  pIC50: 4.72

## O=C1NCCOC1SCc1cccc(C(F)(F)F)c1 (racemic)
Senna obtusifolia
  ED50: >10000 g/ha
Chenopodium album
  ED50: >10000 g/ha
Amaranthus retroflexus
  ED50: >10000 g/ha
Abutilon theophrasti
  ED50: >10000 g/ha
Xanthium strumarium
  ED50: >10000 g/ha
Ipomoea hederacea
  ED50: >10000 g/ha
Galium aparine
  ED50: >10000 g/ha
[1]
  pIC50: 5.49

## CN1CCOC(Cc2cccc(C(F)(F)F)c2)C1=O (racemic)
Senna obtusifolia
  ED50: 500 g/ha
Chenopodium album
  ED50: 450 g/ha
Amaranthus retroflexus
  ED50: 1250 g/ha
Abutilon theophrasti
  ED50: 1400 g/ha
Xanthium strumarium
  ED50: 8900 g/ha
Ipomoea hederacea
  ED50: 500 g/ha
Galium aparine
  ED50: 500 g/ha
[4]
  Ratio ED50: 15
[5]
  Ratio ED50: 15
[6]
  Ratio ED50: 15
[1]
  pIC50: < 4.00

## O=C1NCCOC1Cc1cccc(C(F)(F)F)c1 (racemic)
Senna obtusifolia
  ED50: 350 g/ha
Chenopodium album
  ED50: 140 g/ha
Amaranthus retroflexus
  ED50: 80 g/ha
Abutilon theophrasti
  ED50: 150 g/ha
Xanthium strumarium
  ED50: 800 g/ha
Ipomoea hederacea
  ED50: 380 g/ha
Galium aparine
  ED50: 380 g/ha
[1]
  pIC50: 5.19

## O=C1NCCOC1Sc1cccc(C(F)(F)F)c1 (racemic)
Senna obtusifolia
  ED50: 2500 g/ha
Chenopodium album
  ED50: 850 g/ha
Amaranthus retroflexus
  ED50: 780 g/ha
Abutilon theophrasti
  ED50: 1000 g/ha
Xanthium strumarium
  ED50: >10000 g/ha
Ipomoea hederacea
  ED50: 4800 g/ha
Galium aparine
  ED50: 4800 g/ha
[1]
  pIC50: 5.07

## CN1CCOC(c2cccc(C(F)(F)F)c2)C1=O (racemic)
Senna obtusifolia
  ED50: >10000 g/ha
Chenopodium album
  ED50: 10000 g/ha
Amaranthus retroflexus
  ED50: >10000 g/ha
Abutilon theophrasti
  ED50: 5500 g/ha
Xanthium strumarium
  ED50: 9500 g/ha
Ipomoea hederacea
  ED50: >10000 g/ha
Galium aparine
  ED50: >10000 g/ha
[1]
  pIC50: < 4.00
